Measurements reported in PubChem BioAssay (NCI).
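How tested: cells in 96-well plates exposed to compound for 48 hours at five concentrations. GI50 marks 50% less growth. TGI denotes the concentration required for complete inhibition of growth.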

Legend:
Test in all cases: NCI tumour cell line growth inhibition, 48 h
786-0 renal = system: 786-0 renal
A498 renal = system: A498 renal
A549 NSCLC = system: A549 NSCLC
ACHN renal = system: ACHN renal
BT-549 breast = system: BT-549 breast
CAKI-1 renal = system: CAKI-1 renal
CCRF-CEM leukemia = system: CCRF-CEM leukemia
COLO 205 colon = system: COLO 205 colon
DU-145 prostate = system: DU-145 prostate
EKVX NSCLC = system: EKVX NSCLC
HCC-2998 colon = system: HCC-2998 colon
HCT-116 colon = system: HCT-116 colon
HCT-15 colon = system: HCT-15 colon
HL-60(TB) leukemia = system: HL-60(TB) leukemia
HOP-62 NSCLC = system: HOP-62 NSCLC
HOP-92 NSCLC = system: HOP-92 NSCLC
HS 578T breast = system: HS 578T breast
HT29 colon = system: HT29 colon
IGROV1 ovarian = system: IGROV1 ovarian
K-562 leukemia = system: K-562 leukemia
KM12 colon = system: KM12 colon
LOX IMVI melanoma = system: LOX IMVI melanoma
M14 melanoma = system: M14 melanoma
MALME-3M melanoma = system: MALME-3M melanoma
MCF7 breast = system: MCF7 breast
MDA-MB-231 breast = system: MDA-MB-231 breast
MDA-MB-435 = system: MDA-MB-435
MOLT-4 leukemia = system: MOLT-4 leukemia
NCI-H226 lung = system: NCI-H226 lung
NCI-H23 lung = system: NCI-H23 lung
NCI-H460 lung = system: NCI-H460 lung
NCI-H522 lung = system: NCI-H522 lung
NCI/ADR-RES ovarian = system: NCI/ADR-RES ovarian
OVCAR-3 ovarian = system: OVCAR-3 ovarian
OVCAR-4 ovarian = system: OVCAR-4 ovarian
OVCAR-5 ovarian = system: OVCAR-5 ovarian
OVCAR-8 ovarian = system: OVCAR-8 ovarian
PC-3 prostate = system: PC-3 prostate
RPMI-8226 leukemia = system: RPMI-8226 leukemia
RXF 393 renal = system: RXF 393 renal
SF-268 CNS = system: SF-268 CNS
SF-295 CNS = system: SF-295 CNS
SF-539 CNS = system: SF-539 CNS
SK-MEL-2 melanoma = system: SK-MEL-2 melanoma
SK-MEL-28 melanoma = system: SK-MEL-28 melanoma
SK-MEL-5 melanoma = system: SK-MEL-5 melanoma
SK-OV-3 ovarian = system: SK-OV-3 ovarian
SN12C renal = system: SN12C renal
SNB-19 CNS = system: SNB-19 CNS
SNB-75 CNS = system: SNB-75 CNS
SR leukemia = system: SR leukemia
SW-620 colon = system: SW-620 colon
T-47D breast = system: T-47D breast
TK-10 renal = system: TK-10 renal
U251 CNS = system: U251 CNS
UACC-257 melanoma = system: UACC-257 melanoma
UACC-62 melanoma = system: UACC-62 melanoma
UO-31 renal = system: UO-31 renal

## CC(=O)Nc1ccc(CC[C@H]2CCC/C=C/[C@@H]3C[C@H](O)C[C@H]3[C@H](O)/C=C/C(=O)O2)cc1
786-0 renal
  GI50: 25.2 nM
  TGI: 83.8 nM
A498 renal
  GI50: 16 nM
  TGI: 47.5 nM
A549 NSCLC
  GI50: 309 nM
  TGI: > 100000 nM
ACHN renal
  GI50: 375 nM
  TGI: > 47200 nM
BT-549 breast
  GI50: 182 nM
  TGI: > 100000 nM
CAKI-1 renal
  GI50: 361 nM
  TGI: > 21200 nM
CCRF-CEM leukemia
  GI50: 320 nM
  TGI: > 100000 nM
COLO 205 colon
  GI50: 139 nM
  TGI: 283 nM
DU-145 prostate
  GI50: 366 nM
  TGI: 4200 nM
EKVX NSCLC
  GI50: 191 nM
  TGI: 4330 nM
HCC-2998 colon
  GI50: 78.1 nM
HCT-116 colon
  GI50: 184 nM
  TGI: 389 nM
HCT-15 colon
  GI50: 471 nM
  TGI: > 100000 nM
HL-60(TB) leukemia
  GI50: 337 nM
  TGI: 3950 nM
HOP-62 NSCLC
  GI50: 281 nM
HOP-92 NSCLC
  GI50: 217 nM
  TGI: 791 nM
HS 578T breast
  GI50: 67.4 nM
  TGI: > 93700 nM
HT29 colon
  GI50: 119 nM
  TGI: 951 nM
IGROV1 ovarian
  GI50: 88.7 nM
  TGI: 237 nM
K-562 leukemia
  GI50: 392 nM
  TGI: > 100000 nM
KM12 colon
  GI50: 98.3 nM
  TGI: 315 nM
LOX IMVI melanoma
  GI50: 91.2 nM
  TGI: 405 nM
M14 melanoma
  GI50: 153 nM
  TGI: > 100000 nM
MALME-3M melanoma
  GI50: 257 nM
  TGI: 573 nM
MCF7 breast
  GI50: 157 nM
  TGI: 338 nM
MDA-MB-231 breast
  GI50: 82.6 nM
  TGI: 252 nM
MDA-MB-435
  GI50: 151 nM
  TGI: > 100000 nM
MOLT-4 leukemia
  GI50: 345 nM
  TGI: 2820 nM
NCI-H226 lung
  GI50: 66.7 nM
  TGI: 295 nM
NCI-H23 lung
  GI50: 188 nM
  TGI: 759 nM
NCI-H460 lung
  GI50: 365 nM
  TGI: > 100000 nM
NCI-H522 lung
  GI50: 261 nM
  TGI: 654 nM
NCI/ADR-RES ovarian
  GI50: 819 nM
  TGI: > 100000 nM
OVCAR-3 ovarian
  GI50: 217 nM
  TGI: 533 nM
OVCAR-4 ovarian
  GI50: 105 nM
OVCAR-5 ovarian
  GI50: 346 nM
  TGI: > 66400 nM
OVCAR-8 ovarian
  GI50: 82.1 nM
  TGI: > 100000 nM
PC-3 prostate
  GI50: 353 nM
  TGI: > 100000 nM
RPMI-8226 leukemia
  GI50: 222 nM
  TGI: 591 nM
RXF 393 renal
  GI50: 35.9 nM
  TGI: 150 nM
SF-268 CNS
  GI50: 59.4 nM
  TGI: > 100000 nM
SF-295 CNS
  GI50: 201 nM
  TGI: > 100000 nM
SF-539 CNS
  GI50: 423 nM
  TGI: > 100000 nM
SK-MEL-2 melanoma
  GI50: 313 nM
  TGI: 963 nM
SK-MEL-28 melanoma
  GI50: 36.2 nM
  TGI: 197 nM
SK-MEL-5 melanoma
  GI50: 18.8 nM
  TGI: 34.8 nM
SK-OV-3 ovarian
  GI50: 66.7 nM
  TGI: > 100000 nM
SN12C renal
  GI50: 333 nM
  TGI: > 100000 nM
SNB-19 CNS
  GI50: 231 nM
  TGI: > 100000 nM
SNB-75 CNS
  GI50: 44.6 nM
  TGI: > 94700 nM
SR leukemia
  GI50: 215 nM
SW-620 colon
  GI50: 185 nM
  TGI: 597 nM
T-47D breast
  GI50: 290 nM
TK-10 renal
  GI50: 172 nM
  TGI: 1060 nM
U251 CNS
  GI50: 304 nM
  TGI: > 100000 nM
UACC-257 melanoma
  GI50: 59.6 nM
  TGI: > 100000 nM
UACC-62 melanoma
  GI50: 43.4 nM
  TGI: > 92400 nM
UO-31 renal
  GI50: 316 nM
